# Source: PubChem BioAssay AID1549 (Sanford-Burnham Center for Chemical Genomics, 2009)
# The source made the active and inactive calls. The rule behind the calls is not given here.
# Biological target: Influenza A virus M2 proton channel (A/TW/4845/1999 H1N1)
# Assay: M2 proton channel binding, NMR based, influenza A virus H1N1 strain (AID 1549)
# Conditions: NMR binding screen, M2 protein
row,SMILES,Kd
1,Oc1ccc2c(c1)OCC1(O)Cc3cc(O)c(O)cc3C21 (centres undefined),> 4 mM (inactive)
2,CC(=O)Nc1ccc(CN2CCOCC2)cc1,> 4 mM (inactive)
3,C/C=C1\[C@H]2C=C(C)C[C@]1(N)c1ccc(=O)[nH]c1C2,> 4 mM (inactive)
4,NC1=NC(=O)/C(=C\c2ccccc2)S1,> 4 mM (inactive)
5,O=C(Nn1cnnc1)c1ccccc1-c1ccccc1,> 4 mM (inactive)
6,O=C(O)CCc1c[nH]c2ccccc12,> 4 mM (inactive)
7,CC(=O)NC(=S)Nc1ccccc1C(N)=O,> 4 mM (inactive)
8,Cn1nc(C(C)(C)C)cc1N,> 4 mM (inactive)
9,OCCCc1nc2ccc(C(F)(F)F)cc2[nH]1,> 4 mM (inactive)
10,NC1=NC(=O)/C(=C\c2ccco2)S1,> 4 mM (inactive)
11,O=S(=O)(O)c1cc[n+]([O-])cc1,> 4 mM (inactive)
12,NCc1c[nH]c2ccccc12,> 4 mM (inactive)
13,OC12C=CC(CC1)CC2,> 4 mM (inactive)
14,CN(C)c1ccc(C2CC(=O)CC(=O)C2)cc1,> 4 mM (inactive)
15,CC(=O)O[C@@H]1C[C@@]2(C)[C@H](c3ccoc3)C[C@H]3O[C@]32[C@]2(C)C(=O)C(O)=C3C(C)(C)C(=O)C=C[C@]3(C)C12 (some centres undefined),> 4 mM (inactive)
16,O=C(Nc1ccc(N2CCOCC2)cc1)C1CC1,> 4 mM (inactive)
17,OC1COCc2nc3ccccc3n2C1 (centres undefined),> 4 mM (inactive)
18,Cc1cc(C(=O)NCc2cccs2)c(C)o1,> 4 mM (inactive)
19,Cc1[nH]c2ccccc2c1Cc1n[nH]c(=S)n1C,> 4 mM (inactive)
20,Cc1ccc(C)c(C(=O)n2cnnc2N)c1,> 4 mM (inactive)
21,Nc1ccc2ncsc2c1,> 4 mM (inactive)
22,OCC1CCCN2CCCCC12 (centres undefined),> 4 mM (inactive)
23,C=C1C(=O)OC2CC1C(OC(C)=O)C/C(C)=C/CC/C(C)=C/CC[C@]2(C)O (some centres undefined),> 4 mM (inactive)

row,SMILES,Kd
1,CC1(c2ccncc2)NC(=O)NC1=O (centres undefined),> 4 mM (inactive)
2,CC1(C)C=Cc2c(cc3occ(-c4ccc5c(c4)OCO5)c(=O)c3c2O)O1,> 4 mM (inactive)
3,CC(O)c1nc2ccccc2[nH]1 (centres undefined),> 4 mM (inactive)
4,O=C(O)c1cnc2n(c1=O)CCS2,> 4 mM (inactive)
5,CC(=O)Nc1ccc(S(=O)(=O)N2CCN=C2C)cc1,> 4 mM (inactive)
6,CC(=O)Nc1ccc2c(c1)CCCC2=O,> 4 mM (inactive)
7,Cc1noc(C)c1C(=O)Nc1ccccn1,> 4 mM (inactive)
8,O=C1c2cccc3cc(S(=O)(=O)O)cc(c23)C(=O)N1O,> 4 mM (inactive)
9,O=c1ccc2nc3ccccc3c(=O)n2[nH]1,> 4 mM (inactive)
10,Cc1cccc(NC(=O)c2ccc(=O)[nH]n2)c1,> 4 mM (inactive)
11,COc1cccc(C(=O)Nc2c(C)n[nH]c2C)c1,> 4 mM (inactive)
12,O=C(O)Cn1c(C(F)(F)F)nc2ccccc21,> 4 mM (inactive)
13,O=C1NC2NC(=O)N(c3ccccc3)C2N1 (centres undefined),> 4 mM (inactive)
14,Cc1[nH]c2ccccc2c(=O)c1CO,> 4 mM (inactive)
15,Cc1nnsc1C(=O)Nc1ccccc1[N+](=O)[O-],> 4 mM (inactive)
16,Nc1cccc(-c2cnco2)c1,> 4 mM (inactive)
17,CCn1nccc1C(=O)Nc1ccc(Cl)cc1Cl,> 4 mM (inactive)
18,O=c1nc(C(F)(F)F)nc2ccccn12,> 4 mM (inactive)
19,COc1ccc([C@@H](C)C(=O)c2ccc(O)cc2O)cc1,> 4 mM (inactive)
20,Cc1sc(N)c(C(N)=O)c1C,> 4 mM (inactive)
21,O=C(NC1CSCC1O)c1ccccc1 (centres undefined),> 4 mM (inactive)
22,CC(NC(=O)c1ccco1)C1CCCO1 (centres undefined),> 4 mM (inactive)
23,Cc1cc2c(N)cccc2nn1,> 4 mM (inactive)

row,SMILES,Kd
1,CC(=O)c1cc2c(cc1O)OC(C)(C)C=C2,> 4 mM (inactive)
2,COc1c(O)cccc1O,> 4 mM (inactive)
3,CCOc1cc(C)c(Cl)cc1S(=O)(=O)N(C)C,> 4 mM (inactive)
4,O=c1cc(CO)oc(CN2CCCCC2)c1O,> 4 mM (inactive)
5,CC1SC(=NC(=O)c2ccco2)NC1=O (centres undefined),> 4 mM (inactive)
6,O=C(O)c1ccccc1N1CCOCC1,> 4 mM (inactive)
7,O=C1CSC(=Nc2ccc(Cl)cc2)N1,> 4 mM (inactive)
8,COC(=O)c1scc(S(C)(=O)=O)c1-n1cccc1,> 4 mM (inactive)
9,O=C(CC1NC(=O)NC1=O)Nc1ccccc1 (centres undefined),> 4 mM (inactive)
10,CCC(=O)NC(=S)Nc1ccc(C(N)=O)cc1,> 4 mM (inactive)
11,CCSc1nc(=S)n(CC)c(C)c1C(C)=O,> 4 mM (inactive)
12,Cc1nn(C)c2sc(C(=O)O)cc12,> 4 mM (inactive)
13,O=C(O)CCC(=O)Nc1ccccc1F,> 4 mM (inactive)
14,O=C1CCC(=O)N1CN1CCOCC1,> 4 mM (inactive)
15,O=C(O)c1cncc(-c2ccccc2)c1,> 4 mM (inactive)
16,Cc1cc(C)nc(/N=C(/N)N2CCN(C)CC2)n1,> 4 mM (inactive)
17,CCc1cc(=O)[nH]c(SCC(=O)NCCOC)n1,> 4 mM (inactive)
18,O=C(O)CC1C(=O)NCCN1Cc1cccs1 (centres undefined),> 4 mM (inactive)
19,COc1c2ccoc2cc2oc(=O)ccc12,> 4 mM (inactive)
20,COc1nc(N2CCOCC2)nc(N)c1[N+](=O)[O-],> 4 mM (inactive)
21,Cc1nnc(NC(=O)C(C)Sc2nncn2C)s1 (centres undefined),> 4 mM (inactive)
22,Nc1cc(=O)[nH]c(SCC(=O)NC2CCCCC2)n1,> 4 mM (inactive)
23,CC(=O)O[C@@H]1CC2C(C)(CC[C@H](O)C2(C)C)C2CC[C@]3(C)C(=CC(=O)O[C@H]3c3ccoc3)C21C (some centres undefined),> 4 mM (inactive)

row,SMILES,Kd
1,NC(=O)C1CCN(C(=S)c2ccccc2)CC1,> 4 mM (inactive)
2,Cn1cc(Cl)c(C(=O)Nc2ccc(F)cc2F)n1,> 4 mM (inactive)
3,O=S1(=O)NC(=NCc2ccco2)c2ccccc21,> 4 mM (inactive)
4,O=C(O)c1cccc2c1OCCO2,> 4 mM (inactive)
5,OC/C=C/c1ccc(O)c(O)c1,> 4 mM (inactive)
6,Nc1ccc2c(c1)CCCC2=O,> 4 mM (inactive)
7,C=C1C2CC[C@@]3(C)[C@H](c4ccoc4)OC(=O)C[C@]13O[C@H]1C[C@H](OC(C)=O)C(C)(C)[C@H](CC(=O)OC)[C@@]21C,> 4 mM (inactive)
8,CC(=O)Nc1cccs1,> 4 mM (inactive)
9,CC(=O)Oc1ccc2c(c1)c(C(C)=O)c(C)n2C,> 4 mM (inactive)
10,COc1cc(N)ncn1,> 4 mM (inactive)
11,CC(O)C(=O)N/N=C/c1cccs1 (centres undefined),> 4 mM (inactive)
12,Cn1c(SCC(=O)NCCO)nc2ccccc2c1=O,> 4 mM (inactive)
13,O=C1CC(=O)N2N=C(c3ccccc3)SC2=N1,> 4 mM (inactive)
14,CCOC12NC(=O)CC(=O)N1C(c1ccccc1)=CS2 (centres undefined),> 4 mM (inactive)
15,CC(C)C(C)/C=C/C(C)[C@H]1CCC2C3=CCC4CC(=O)CC[C@]4(C)C3CC[C@@]21C (some centres undefined),> 4 mM (inactive)
16,CC(C)=CCC[C@](C)(O)C1CC=C(C)CC1 (some centres undefined),> 4 mM (inactive)
17,NCc1ccc2c(c1)CCO2,> 4 mM (inactive)
18,CN(C)C(=O)CSc1nc(N)cc(=O)[nH]1,> 4 mM (inactive)
19,CN1CCN(C(=O)Nc2cccc3ccccc23)CC1,> 4 mM (inactive)
20,COCCn1c(N)nc2c1c(=O)[nH]c(=O)n2C,> 4 mM (inactive)
